Test results as given in patent US20260217767A1, “NOVEL A4B7 THIOETHER PEPTIDE DIMER ANTAGONISTS” (Protagonist Therapeutics, Inc., priority 2014, published 2026).
pIC50: −log10 of the molar value. *1 amine or outer side, *2 acyl side, *3 side chain or, on linkers, in order; H or OH if unused. Where a SMILES comes first, the peptide text is derived from it. Bridges are numbered along the chain shown (N, C = ends). Roman numbers before positions name the chains, in order. [ ]: non-standard residue; d: D form. Diglycolyl = O=C(COCC(=O)[*:2])[*:1]; NMeR = CN[C@@H](CCCNC(=N)N)C(=O)O; X1 = O=C(c1ccccc1C[*:2])[*:1]; Pen = CC(C)(S)[C@H](N)C(=O)O

target: T1, rh integrin α4β7 (Homo sapiens, UniProt P13612+P26010); assay: α4β7-MAdCAM Competition ELISA; format: binding; details: thioether monomer peptides, Table 6; read-out: ELISA A4B7
T1 construct: purchased R&D Systems 5397-A30
T1 sequence (P13612 34-977 limits assumed): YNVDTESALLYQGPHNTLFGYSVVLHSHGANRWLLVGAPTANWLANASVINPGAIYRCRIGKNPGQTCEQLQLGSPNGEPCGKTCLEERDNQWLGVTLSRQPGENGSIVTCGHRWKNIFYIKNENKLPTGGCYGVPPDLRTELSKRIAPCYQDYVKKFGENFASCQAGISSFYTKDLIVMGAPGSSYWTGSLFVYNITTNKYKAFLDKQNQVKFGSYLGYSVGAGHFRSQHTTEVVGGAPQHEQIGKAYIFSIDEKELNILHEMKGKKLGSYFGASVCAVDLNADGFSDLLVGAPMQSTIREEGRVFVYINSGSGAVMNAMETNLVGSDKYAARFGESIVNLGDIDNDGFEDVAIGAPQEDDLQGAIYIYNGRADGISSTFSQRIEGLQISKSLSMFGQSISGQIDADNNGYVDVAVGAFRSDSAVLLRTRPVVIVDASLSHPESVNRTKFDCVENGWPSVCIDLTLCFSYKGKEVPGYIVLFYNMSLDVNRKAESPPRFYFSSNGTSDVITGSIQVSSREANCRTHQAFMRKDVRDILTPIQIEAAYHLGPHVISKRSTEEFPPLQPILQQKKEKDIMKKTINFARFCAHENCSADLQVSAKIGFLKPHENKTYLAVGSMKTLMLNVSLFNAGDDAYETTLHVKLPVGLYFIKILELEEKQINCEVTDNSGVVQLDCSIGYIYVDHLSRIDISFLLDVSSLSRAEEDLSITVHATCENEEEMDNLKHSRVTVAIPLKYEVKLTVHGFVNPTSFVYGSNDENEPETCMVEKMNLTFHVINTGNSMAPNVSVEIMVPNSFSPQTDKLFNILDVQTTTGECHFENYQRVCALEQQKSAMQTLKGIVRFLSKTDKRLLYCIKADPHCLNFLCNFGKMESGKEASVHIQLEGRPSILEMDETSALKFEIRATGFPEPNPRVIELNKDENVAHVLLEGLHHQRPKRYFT
T1 sequence (P26010 20-723 limits assumed): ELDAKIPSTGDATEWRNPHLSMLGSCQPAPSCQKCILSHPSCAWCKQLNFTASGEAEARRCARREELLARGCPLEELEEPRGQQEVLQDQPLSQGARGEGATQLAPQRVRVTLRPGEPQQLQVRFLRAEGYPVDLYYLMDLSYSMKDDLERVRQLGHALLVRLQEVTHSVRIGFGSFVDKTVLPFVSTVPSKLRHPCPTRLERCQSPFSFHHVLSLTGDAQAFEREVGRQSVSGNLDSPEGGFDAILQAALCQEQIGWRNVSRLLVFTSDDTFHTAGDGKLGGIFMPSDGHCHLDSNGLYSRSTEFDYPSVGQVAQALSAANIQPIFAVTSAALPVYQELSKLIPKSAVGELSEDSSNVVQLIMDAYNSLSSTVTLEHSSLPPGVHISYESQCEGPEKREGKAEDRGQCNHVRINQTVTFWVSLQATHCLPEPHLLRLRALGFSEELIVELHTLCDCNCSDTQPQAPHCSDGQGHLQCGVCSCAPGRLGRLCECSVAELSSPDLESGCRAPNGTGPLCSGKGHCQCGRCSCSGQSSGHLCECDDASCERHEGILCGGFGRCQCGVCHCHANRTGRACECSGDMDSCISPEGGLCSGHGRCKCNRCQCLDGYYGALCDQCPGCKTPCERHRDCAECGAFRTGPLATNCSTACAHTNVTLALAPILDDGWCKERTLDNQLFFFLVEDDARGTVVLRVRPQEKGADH
Method in brief: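 Recombinant human α4β7 captured on nickel-coated plates, then incubated 1 h at room temperature with serially diluted peptides (final top 10 μM) and 10 nM final MAdCAM-1 in Tris pH 7.6 buffer with 1 mM MnCl2 or MgCl2. Bound MAdCAM-1 detected with anti-human IgG1-HRP and TMB, absorbance at 450 nm.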

SMILES	pIC50
CC(C)C[C@@H]1NC(=O)[C@H]([C@@H](C)O)NC(=O)[C@H](CC(=O)O)NC(=O)[C@H](CO)NC(=O)[C@H](CCCNC(=N)N)N(C)C(=O)c2ccccc2CSC(C)(C)[C@@H](C(=O)N[C@@H](Cc2c[nH]c3ccccc23)C(=O)N[C@H](CCC(=O)O)C(=O)N[C@H](Cc2ccc(O)cc2)C(N)=O)NC1=O [compound 110] (HELM PEPTIDE1{[meR].S.D.T.L.[Pen].W.[dE].[dY].[am]}|CHEM1{[O=C(c1ccccc1C[*:2])[*:1]]}$PEPTIDE1,CHEM1,1:R1-1:R1|PEPTIDE1,CHEM1,6:R3-1:R2$$$V2.0)	> 7.60
CC(C)C[C@@H]1NC(=O)[C@H]([C@@H](C)O)NC(=O)[C@H](CC(=O)O)NC(=O)[C@H](CO)NC(=O)[C@H](CCCNC(=N)N)N(C)C(=O)c2ccccc2CSC(C)(C)[C@@H](C(=O)N[C@@H](Cc2c[nH]c3ccccc23)C(=O)N[C@@H](CCC(=O)O)C(=O)N[C@@H](CCN)C(N)=O)NC1=O [compound 93] (HELM PEPTIDE1{[meR].S.D.T.L.[Pen].W.E.[Dab].[am]}|CHEM1{[O=C(c1ccccc1C[*:2])[*:1]]}$PEPTIDE1,CHEM1,1:R1-1:R1|PEPTIDE1,CHEM1,6:R3-1:R2$$$V2.0)	> 7.60
CC(=O)NCCCC[C@@H](NC(=O)[C@@H](CCC(=O)O)NC(=O)[C@H](Cc1ccc(O)cc1)NC(=O)[C@H]1NC(=O)[C@H](CC(C)C)NC(=O)[C@H]([C@@H](C)O)NC(=O)[C@H](CC(=O)O)NC(=O)[C@H](CO)NC(=O)[C@H](CCCNC(=N)N)N(C)C(=O)c2ccccc2CSC1(C)C)C(N)=O [compound 91] (HELM PEPTIDE1{[meR].S.D.T.L.[Pen].Y.[dE].[dK].[am]}|PEPTIDE2{[ac]}|CHEM1{[O=C(c1ccccc1C[*:2])[*:1]]}$PEPTIDE1,PEPTIDE2,9:R3-1:R2|PEPTIDE1,CHEM1,1:R1-1:R1|PEPTIDE1,CHEM1,6:R3-1:R2$$$V2.0)	> 7.60
CC(C)C[C@@H]1NC(=O)[C@H]([C@@H](C)O)NC(=O)[C@H](CC(=O)O)NC(=O)[C@H](CO)NC(=O)[C@H](CCCNC(=N)N)N(C)C(=O)c2ccccc2CSC(C)(C)[C@@H](C(=O)N[C@@H](Cc2ccc3ccccc3c2)C(N)=O)NC1=O [compound 116] (HELM PEPTIDE1{[meR].S.D.T.L.[Pen].[O=C([C@H](Cc1ccc2ccccc2c1)N[*:1])[*:2]].[am]}|CHEM1{[O=C(c1ccccc1C[*:2])[*:1]]}$PEPTIDE1,CHEM1,1:R1-1:R1|PEPTIDE1,CHEM1,6:R3-1:R2$$$V2.0)	> 7.60
CC(C)C[C@@H]1NC(=O)[C@H]([C@@H](C)O)NC(=O)[C@H](CC(=O)O)NC(=O)[C@H](CO)NC(=O)[C@H](CCCNC(=N)N)N(C)C(=O)c2ccccc2CSC(C)(C)[C@@H](C(=O)N[C@@H](Cc2c[nH]c3ccccc23)C(=O)N[C@H](CCC(=O)O)C(=O)N[C@@H](Cc2ccccc2)C(N)=O)NC1=O [compound 101] (HELM PEPTIDE1{[meR].S.D.T.L.[Pen].W.[dE].F.[am]}|CHEM1{[O=C(c1ccccc1C[*:2])[*:1]]}$PEPTIDE1,CHEM1,1:R1-1:R1|PEPTIDE1,CHEM1,6:R3-1:R2$$$V2.0)	> 7.60
CC(=O)NCCCC[C@@H](NC(=O)[C@H](CCC(=O)O)NC(=O)[C@H](Cc1c[nH]c2ccccc12)NC(=O)[C@H]1NC(=O)[C@H](CC(C)C)NC(=O)[C@H]([C@@H](C)O)NC(=O)[C@H](CC(=O)O)NC(=O)[C@H](CO)NC(=O)[C@H](CCCNC(=N)N)N(C)C(=O)c2ccccc2CSC1(C)C)C(N)=O [compound 80] (HELM PEPTIDE1{[meR].S.D.T.L.[Pen].W.E.[dK].[am]}|PEPTIDE2{[ac]}|CHEM1{[O=C(c1ccccc1C[*:2])[*:1]]}$PEPTIDE1,PEPTIDE2,9:R3-1:R2|PEPTIDE1,CHEM1,1:R1-1:R1|PEPTIDE1,CHEM1,6:R3-1:R2$$$V2.0)	> 7.60
CC(=O)NCCCC[C@@H](NC(=O)[C@@H](CCC(=O)O)NC(=O)[C@H](Cc1c[nH]c2ccccc12)NC(=O)[C@H]1NC(=O)[C@H](CC(C)C)NC(=O)[C@H]([C@@H](C)O)NC(=O)[C@H](CC(=O)O)NC(=O)[C@H](CO)NC(=O)[C@H](CCCNC(=N)N)N(C)C(=O)c2ccccc2CSC1(C)C)C(N)=O [compound 81] (HELM PEPTIDE1{[meR].S.D.T.L.[Pen].W.[dE].[dK].[am]}|PEPTIDE2{[ac]}|CHEM1{[O=C(c1ccccc1C[*:2])[*:1]]}$PEPTIDE1,PEPTIDE2,9:R3-1:R2|PEPTIDE1,CHEM1,1:R1-1:R1|PEPTIDE1,CHEM1,6:R3-1:R2$$$V2.0)	> 7.60
CC(C)C[C@@H]1NC(=O)[C@H]([C@@H](C)O)NC(=O)[C@H](CC(=O)O)NC(=O)[C@H](CO)NC(=O)[C@H](CCCNC(=N)N)N(C)C(=O)c2ccccc2CSC(C)(C)[C@@H](C(=O)N[C@@H](Cc2c[nH]c3ccccc23)C(=O)N[C@@H](CCC(=O)O)C(=O)N[C@@H](CN)C(N)=O)NC1=O [compound 92] (HELM PEPTIDE1{[meR].S.D.T.L.[Pen].W.E.[NC[C@H](N[*:1])C(=O)[*:2]].[am]}|CHEM1{[O=C(c1ccccc1C[*:2])[*:1]]}$PEPTIDE1,CHEM1,1:R1-1:R1|PEPTIDE1,CHEM1,6:R3-1:R2$$$V2.0)	> 7.60
CC(C)C[C@@H]1NC(=O)[C@H]([C@@H](C)O)NC(=O)[C@H](CC(=O)O)NC(=O)[C@H](CO)NC(=O)[C@H](CCCNC(=N)N)N(C)C(=O)c2ccccc2CSC(C)(C)[C@@H](C(=O)N[C@@H](Cc2c[nH]c3ccccc23)C(=O)N[C@H](CCC(=O)O)C(=O)N[C@@H](CO)C(N)=O)NC1=O [compound 100] (HELM PEPTIDE1{[meR].S.D.T.L.[Pen].W.[dE].S.[am]}|CHEM1{[O=C(c1ccccc1C[*:2])[*:1]]}$PEPTIDE1,CHEM1,1:R1-1:R1|PEPTIDE1,CHEM1,6:R3-1:R2$$$V2.0)	> 7.60
CC(C)C[C@@H]1NC(=O)[C@H]([C@@H](C)O)NC(=O)[C@H](CC(=O)O)NC(=O)[C@H](CO)NC(=O)[C@H](CCCNC(=N)N)N(C)C(=O)c2ccccc2CSC(C)(C)[C@@H](C(=O)N[C@@H](Cc2c[nH]c3ccccc23)C(=O)N[C@H](CCC(=O)O)C(=O)N[C@@H](CCC(=O)O)C(N)=O)NC1=O [compound 113] (HELM PEPTIDE1{[meR].S.D.T.L.[Pen].W.[dE].E.[am]}|CHEM1{[O=C(c1ccccc1C[*:2])[*:1]]}$PEPTIDE1,CHEM1,1:R1-1:R1|PEPTIDE1,CHEM1,6:R3-1:R2$$$V2.0)	> 7.60

same assay, conditions: thioether peptide dimers, Table 7; read-out: ELISA A4B7

SMILES	pIC50
CC(C)C[C@@H]1NC(=O)[C@H]([C@@H](C)O)NC(=O)[C@H](CC(=O)O)NC(=O)[C@H](CO)NC(=O)[C@H](CCCNC(=N)N)N(C)C(=O)c2ccccc2CSC(C)(C)[C@@H](C(=O)N[C@@H](Cc2ccccc2)C(=O)N[C@H](CCC(=O)O)C(=O)N[C@H](CCCCNC(=O)COCC(=O)NCCCC[C@@H](NC(=O)[C@@H](CCC(=O)O)NC(=O)[C@H](Cc2ccccc2)NC(=O)[C@H]2NC(=O)[C@H](CC(C)C)NC(=O)[C@H]([C@@H](C)O)NC(=O)[C@H](CC(=O)O)NC(=O)[C@H](CO)NC(=O)[C@H](CCCNC(=N)N)N(C)C(=O)c3ccccc3CSC2(C)C)C(=O)O)C(=O)O)NC1=O [compound 204] (I: [NMeR]SDTL[Pen]F[dE][dK]-OH / II: [NMeR]SDTL[Pen]F[dE][dK]-OH; linker I:9-II:9 via Diglycolyl; linker I:N-I:6, II:N-II:6 via X1)	> 7.60

tested on: not listed separately; assay: Simulated Intestinal Fluid (SIF) Stability Assay; format: in vitro ADME; details: pig, porcine pancreatin, 37° C.; dimers, Table 7
Method in brief: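 Percent peptide remaining over time was measured by LC-MS/MS as the peak-area ratio to internal standard, and a first-order decay fit gave half-life. Digests contained 22 μM peptide and 1% pancreatin in pH 6.5 FaSSIF buffer at 37° C. Aliquots were quenched in organic solvent with formic acid.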

SMILES	half-life [h]
CC(C)C[C@@H]1NC(=O)[C@H]([C@@H](C)O)NC(=O)[C@H](CC(=O)O)NC(=O)[C@H](CO)NC(=O)[C@H](CCCNC(=N)N)N(C)C(=O)c2ccccc2CSC(C)(C)[C@@H](C(=O)N[C@@H](Cc2ccccc2)C(=O)N[C@H](CCC(=O)O)C(=O)N[C@H](CCCCNC(=O)COCC(=O)NCCCC[C@@H](NC(=O)[C@@H](CCC(=O)O)NC(=O)[C@H](Cc2ccccc2)NC(=O)[C@H]2NC(=O)[C@H](CC(C)C)NC(=O)[C@H]([C@@H](C)O)NC(=O)[C@H](CC(=O)O)NC(=O)[C@H](CO)NC(=O)[C@H](CCCNC(=N)N)N(C)C(=O)c3ccccc3CSC2(C)C)C(=O)O)C(=O)O)NC1=O [compound 204] (I: [NMeR]SDTL[Pen]F[dE][dK]-OH / II: [NMeR]SDTL[Pen]F[dE][dK]-OH; linker I:9-II:9 via Diglycolyl; linker I:N-I:6, II:N-II:6 via X1)	> 3
